Laboratory results published in PMC10935965, “An odorant receptor mediates the avoidance of Plutella xylostella against parasitoid” (BMC Biology, 2024).

What was measured:
PxylOR16/PxylOrco [1] = target: T1, PxylOR16/PxylOrco (Plutella xylostella, UniProt V9SFT8); test: two-electrode voltage clamp, Xenopus oocytes; assay type: cell-based; settings: agonist, co-expressed with PxylOrco, holding potential -80 mV, Ringer's buffer
T1 construct: no tag stated; with Odorant receptor coreceptor
T1 sequence (V9SFT8 1-405): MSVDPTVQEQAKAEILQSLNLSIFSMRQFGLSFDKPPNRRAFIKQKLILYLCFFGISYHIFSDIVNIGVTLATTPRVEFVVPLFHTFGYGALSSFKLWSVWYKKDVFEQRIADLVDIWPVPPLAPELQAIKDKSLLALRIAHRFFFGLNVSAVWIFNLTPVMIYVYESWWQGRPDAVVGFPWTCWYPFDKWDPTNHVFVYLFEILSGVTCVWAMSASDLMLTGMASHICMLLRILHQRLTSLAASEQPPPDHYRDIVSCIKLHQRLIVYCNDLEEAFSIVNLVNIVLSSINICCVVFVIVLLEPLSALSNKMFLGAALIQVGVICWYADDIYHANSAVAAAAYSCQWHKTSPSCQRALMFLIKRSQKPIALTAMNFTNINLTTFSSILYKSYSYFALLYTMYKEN
T1 sequence (D0EZE1 1-471 partner): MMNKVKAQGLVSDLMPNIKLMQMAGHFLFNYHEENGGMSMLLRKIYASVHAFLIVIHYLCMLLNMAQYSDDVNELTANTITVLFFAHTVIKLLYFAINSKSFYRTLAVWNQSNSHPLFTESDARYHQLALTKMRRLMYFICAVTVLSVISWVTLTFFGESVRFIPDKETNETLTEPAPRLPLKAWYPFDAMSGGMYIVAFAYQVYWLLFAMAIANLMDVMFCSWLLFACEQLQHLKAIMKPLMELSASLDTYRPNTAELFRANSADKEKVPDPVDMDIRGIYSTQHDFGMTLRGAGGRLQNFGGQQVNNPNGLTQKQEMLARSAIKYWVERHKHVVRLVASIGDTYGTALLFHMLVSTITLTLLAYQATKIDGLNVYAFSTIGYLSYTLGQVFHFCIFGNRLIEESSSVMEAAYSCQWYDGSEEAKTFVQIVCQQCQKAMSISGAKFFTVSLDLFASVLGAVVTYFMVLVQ

PxylOR16/PxylOrco [2] = target: T1, PxylOR16/PxylOrco; test: two-electrode voltage clamp, Xenopus oocytes; assay type: cell-based

CCCCCCCO [1-heptanol]
inward current response at 10^-4 M (PxylOR16/PxylOrco [1]): they also responded weakly to two other volatiles (octyl acetate and 1-heptanol)

CCCCCCCCOC(C)=O [octyl acetate]
inward current response at 10^-4 M (PxylOR16/PxylOrco [1]; weak agonist, 10^-4 M): they also responded weakly to two other volatiles (octyl acetate and 1-heptanol)

CCCCCCC=O [heptanal]
EC50 (PxylOR16/PxylOrco [2]): 17.6 µM
